Test results published in PMC7849553 (Haematologica, 2020).

Experiments:
[1] = molecular target: mouse CLEC-2 (Fc-mCLEC-2) (Mus musculus, UniProt Q9JL99); experiment: biochemical
[2] = molecular target: human CLEC-2 (hFc-CLEC-2) (Homo sapiens, UniProt Q9P126); experiment: biochemical
human CLEC-2 (hFc-CLEC-2), sequence (Q9P126 55-229 limits assumed): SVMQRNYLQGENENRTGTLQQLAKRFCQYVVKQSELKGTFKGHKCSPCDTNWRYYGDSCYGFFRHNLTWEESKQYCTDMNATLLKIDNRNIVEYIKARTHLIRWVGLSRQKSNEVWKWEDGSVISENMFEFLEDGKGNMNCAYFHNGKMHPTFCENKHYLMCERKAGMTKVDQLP

mouse CLEC-2 (Fc-mCLEC-2), sequence (Q9JL99 53-229 limits assumed): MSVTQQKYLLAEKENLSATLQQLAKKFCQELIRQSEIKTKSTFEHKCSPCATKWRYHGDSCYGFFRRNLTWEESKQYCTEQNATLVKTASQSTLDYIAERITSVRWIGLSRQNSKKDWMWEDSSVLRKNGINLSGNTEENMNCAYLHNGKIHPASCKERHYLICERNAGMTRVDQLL

C=CC1=C(C)C2=Cc3c(C=C)c(C)c4[n]3[Fe]([Cl])[n]3c(c(C)c(CCC(=O)O)c3=CC3=NC(=C4)C(C)=C3CCC(=O)O)=CC1=N2 [hemin]
Kd [1]: ~200 nM
Kd [2]: ~200 nM
